Marks after values point to notes of the source that are not given here.
Key:
SW620 = assay: cells; conditions: Homo sapiens, SW-620, 72 h
HCT-8 = assay: Cell viability, Sulforhodamine B (SRB) staining; type: cell-based, human; conditions: Homo sapiens, HCT-8, 72 h, FBP 0.8 mM
U87-MG [1] = assay: Western Blot of key glycolytic enzymes; type: cell-based, human; conditions: 0.8 mM, 1 h to 48 h
glioma cells KNS-89 = assay: Lactic acid released by glioma cells (glycolysis); type: cell-based, human
Bel-7402 = assay: cells; conditions: Homo sapiens, Bel-7402, 72 h, read-out: cell viability inhibited
glioma cells U87-MG = assay: Lactic acid released by glioma cells (glycolysis); type: cell-based, human
U87MG [2] = assay: Western Blot of metabolic enzymes and epigenetic proteins, 5-hmC immunocytochemistry; type: cell-based, human; conditions: 1.6 mM
Method: (§1) Human glioma cell strain (U87MG) was cultured in a medium containing 1.6 mM of trisodium fructose-1,6-bisphosphate for 36 h, and then cytoplasm and mitochondria were separated. Levels of tricarboxylic acid circulation intermediates in cytoplasm and mitochondria were respectively measured by LC-MS/MS.
Human glioma cell strain (U87MG) was respectively cultured in the medium containing 1.6 mM of trisodium fructose-1,6-bisphosphate for 0, 1, 3, 6, 12, 24, 36, and 48 h, and the changes of protein levels of enzymes related to fatty acid and nucleic acid biosynthetic pathway were investigated by Western Blot (WB).
Human glioma cell strain (U87MG) was respectively cultured in the medium containing 1.6 mM of trisodium fructose-1,6-bisphosphate for 24 h and 36 h, and then a level of 5-hydroxymethylcytosine (5-hmC) was measured by an immunocytochemistry method.

[3] = system: mouse liver cancer cells H22; assay: Tumor growth of mouse liver cancer H22 model; type: in vivo, ICR mice; conditions: FBP 500 mg/kg, i.g., 7 days; for Tumor weight: three times per day
Method: The treatment was performed three times per day, in which metformin or sitagliptin was administrated 0.5 h before trisodium fructose-1,6-bisphosphate. This is repeated for 7 days, and situations of the animals during the experiments were observed. The animals were sacrificed 24 hours after the last treatment, the tumor masses were taken out and weighed, and the average tumor weight in each group of animals was used as an efficacy index.

U87MG [4] = assay: Tricarboxylic acid circulation intermediates in cytoplasm and mitochondria (LC-MS/MS); type: cell-based, human; conditions: 1.6 mM, 36 h
Method: as §1

[5] = system: patient-derived glioma cells Tumor 3; assay: Intracellular glycolytic intermediates (LC-MS/MS) and FBP in culture medium; type: cell-based, human; conditions: Tumor 3, 1.6 mM, 36 h
Method: (§2) Rat glioma cell strains (C6), human glioma cell strains (U87-MG, U-251, SHG-44) and patient-derived glioma cells (tumor 1, tumor 3) were incubated in a culture medium containing 1.6 mM of trisodium fructose-1,6-bisphosphate, and after 36 h, levels of glycolytic intermediates including glucose-6-phosphate G6P, fructose-1,6-bisphosphate FBP, glyceraldehyde 3-phosphate (GAP), dihydroxyacetone phosphate (DHAP), and […] 3-phosphoglyceric acid PGA in respective cells were measured by using LC-MS/MS; and additionally, the levels of fructose-1,6-bisphosphate in each glioma cell strain at 12 h and 36 h were measured.

SHG-44 = assay: as above; type: cell-based, human; conditions: SHG-44, 1.6 mM, 36 h
Method: as §2

[6] = system: patient-derived glioma cells Tumor 1; assay: as above; type: cell-based, human; conditions: Tumor 1, 1.6 mM, 36 h
Method: as §2

U87-MG [7] = assay: as above; type: cell-based, human; conditions: 1.6 mM, 36 h
Method: as §2

[8] = system: Normal human astrocytes (HA); assay: Regulation of metabolism in normal human astrocytes; type: cell-based; conditions: vs control group
Method: Normal human astrocytes (HA) were incubated in culture media containing different concentrations of trisodium fructose-1,6-bisphosphate salt (0 mM, 0.25 mM, 0.5 mM, 1 mM), and lactic acid level in the culture media and intracellular ATP level were measured after 12 h and 24 h.
The normal human astrocytes (HA) were incubated in culture media containing different concentrations of trisodium fructose-1,6-bisphosphate salt (0 mM, 0.25 mM, 0.5 mM, 1 mM, 2 mM, 2.5 mM), and after 36 h, reduced glutathione GSH level and a ratio of NADPH/NADP+ in the group of […] trisodium fructose-1,6-bisphosphate in the cells were measured. […] (FIG. 1d, e)

C6 = assay: Intracellular glycolytic intermediates (LC-MS/MS) and FBP in culture medium; type: cell-based, rat; conditions: C6, 1.6 mM, 36 h
Method: as §2

Question: For `O=C(COP(=O)(O)O)[C@@H](O)[C@H](O)[C@H](O)COP(=O)(O)O` [FBP, fructose-1,6-bisphosphate], which viability at 800 µM (SW620; read-out: cell viability (Con = 100)) is on record?
Answer: 49.9 ± 3.91%

Question: And the cytotoxicity at 800 µM (SW620; read-out: cell viability inhibited)?
Answer: 41%

Question: What about the viability at 800 µM (HCT-8; STG 100 μM, read-out: cell viability (Con = 100)) of the same molecule?
Answer: 85.9 ± 3.29%

Question: And the cytotoxicity at 800 µM (HCT-8; sitagliptin 100 μM, read-out: cell viability inhibited)?
Answer: 41%

Question: And the “levels of HK2, PFKFB3, PKM2 and LDH5 (Western Blot)” value (U87-MG [1])?
Answer: quickly and continuously down-regulated

Question: What about the “Relative levels of lactic acid (compared with the control group)” value (shortened to “Relative levels of lactic acid”) (glioma cells KNS-89; KNS-89, 0.8 mM, 12 h) of the same molecule?
Answer: 0.75 ± 0.11

Question: What about the “Relative levels of lactic acid” value (glioma cells KNS-89; KNS-89, 0.8 mM, 24 h) of the same molecule?
Answer: 0.94 ± 0.16

Question: And the “Relative levels of lactic acid” value (glioma cells KNS-89; KNS-89, 0.8 mM, 36 h)?
Answer: 0.78 ± 0.09

Question: And the “Relative levels of lactic acid” value (glioma cells KNS-89; KNS-89, 1.6 mM, 12 h)?
Answer: 0.87 ± 0.03

Question: And the “Relative levels of lactic acid” value (glioma cells KNS-89; KNS-89, 1.6 mM, 24 h)?
Answer: 0.83 ± 0.20

Question: And the “Relative levels of lactic acid” value (glioma cells KNS-89; KNS-89, 1.6 mM, 36 h)?
Answer: 0.62 ± 0.10

Question: What about the cytotoxicity at 800 µM (Bel-7402) of the same molecule?
Answer: 41%

Question: And the “Relative levels of lactic acid” value (glioma cells U87-MG; 0.8 mM, 12 h)?
Answer: 0.96 ± 0.13

Question: And the “Relative levels of lactic acid” value (glioma cells U87-MG; 0.8 mM, 24 h)?
Answer: 0.73 ± 0.05

Question: What about the “Relative levels of lactic acid” value (glioma cells U87-MG; 0.8 mM, 36 h) of the same molecule?
Answer: 0.56 ± 0.18

Question: And the “Relative levels of lactic acid” value (glioma cells U87-MG; 1.6 mM, 12 h)?
Answer: 1.09 ± 0.11

Question: And the “Relative levels of lactic acid” value (glioma cells U87-MG; 1.6 mM, 24 h)?
Answer: 0.71 ± 0.05

Question: And the “Relative levels of lactic acid” value (glioma cells U87-MG; 1.6 mM, 36 h)?
Answer: 0.39 ± 0.03

Question: What about the “epigenetic related proteins of tumor cells (Ac-Foxo, H3K9ac, H3K9me2)” value (U87MG [2]) of the same molecule?
Answer: quickly down-regulated

Question: What about the “protein levels of malate shuttle-related enzymes (ME1, MDH1, MDH2, GOT1, GOT2)” value (U87MG [2]) of the same molecule?
Answer: decreased significantly over time

Question: And the “protein levels of enzymes related to fatty acid and nucleic acid biosynthesis (CAD, TS, ACL, FASN)” value (U87MG [2]; 0-48 h, Western Blot)?
Answer: decreased significantly over time

Question: What about the “level of 5-hydroxymethylcytosine (5-hmC)” value (U87MG [2]; 24 h and 36 h, immunocytochemistry) of the same molecule?
Answer: significantly increased

Question: And the Tumor weight ([3]; H22, metformin experiment, Met 150 mg/kg, Con 1.66 ± 0.29)?
Answer: 0.91 ± 0.23 g

Question: What about the Tumor weight ([3]; H22, sitagliptin experiment, STG 20 mg/kg, Con 1.48 ± 0.34) of the same molecule?
Answer: 0.67 ± 0.28 g

Question: What about the “inhibition of tumor growth (inhibition ratio)” value ([3]; H22, metformin 150 mg/kg, sitagliptin 20 mg/kg) of the same molecule?
Answer: 54.39%

Question: And the “Relative level of Ac-CoA (compared with the control group)” value (U87MG [4]; cytoplasm)?
Answer: 0.02 ± 0.01

Question: And the “Relative level of Cit (compared with the control group)” value (U87MG [4]; cytoplasm)?
Answer: 0.28 ± 0.01

Question: And the “Relative level of OAA (compared with the control group)” value (U87MG [4]; cytoplasm)?
Answer: 0.19 ± 0.01

Question: What about the “Relative level of α-KG (compared with the control group)” value (U87MG [4]; cytoplasm) of the same molecule?
Answer: 1.20 ± 0.12*^

Question: What about the “Relative level of Ac-CoA (compared with the control group)” value (U87MG [4]; mitochondria) of the same molecule?
Answer: 1.38 ± 0.11

Question: And the “Relative level of Cit (compared with the control group)” value (U87MG [4]; mitochondria)?
Answer: 1.02 ± 0.06

Question: What about the “Relative level of OAA (compared with the control group)” value (U87MG [4]; mitochondria) of the same molecule?
Answer: 2.02 ± 0.13

Question: What about the “Relative level of α-KG (compared with the control group)” value (U87MG [4]; mitochondria) of the same molecule?
Answer: 2.42 ± 0.04

Question: And the “Increase folds of intracellular DHAP (compared with the control group)” value (“Increase folds of intracellular DHAP” for short) [5]?
Answer: 55.58 folds

Question: What about the “Increase folds of intracellular F6P (compared with the control group)” value (shortened to “Increase folds of intracellular F6P”) [5] of the same molecule?
Answer: 14.12 folds

Question: And the “Increase folds of intracellular FBP (compared with the control group)” value (shortened to “Increase folds of intracellular FBP”) [5]?
Answer: 22.94 folds

Question: What about the “Increase folds of intracellular GAP (compared with the control group)” value (shortened to “Increase folds of intracellular GAP”) [5] of the same molecule?
Answer: 76.22 folds

Question: And the “Increase folds of intracellular PGA (compared with the control group)” value (shortened to “Increase folds of intracellular PGA”) [5]?
Answer: 1.86 folds

Question: What about the “Increase folds of intracellular DHAP” value (SHG-44) of the same molecule?
Answer: 12.48 folds

Question: What about the “Increase folds of intracellular F6P” value (SHG-44) of the same molecule?
Answer: 3.12 folds

Question: What about the “Increase folds of intracellular FBP” value (SHG-44) of the same molecule?
Answer: 10.74 folds

Question: And the “Increase folds of intracellular GAP” value (SHG-44)?
Answer: 21.03 folds

Question: And the “Increase folds of intracellular PGA” value (SHG-44)?
Answer: 2.04 folds

Question: What about the “Increase folds of intracellular DHAP” value [6] of the same molecule?
Answer: 4.9 folds

Question: And the “Increase folds of intracellular F6P” value [6]?
Answer: 2.02 folds

Question: What about the “Increase folds of intracellular FBP” value [6] of the same molecule?
Answer: 8.27 folds

Question: And the “Increase folds of intracellular GAP” value [6]?
Answer: 7.22 folds

Question: And the “Increase folds of intracellular PGA” value [6]?
Answer: 1.13 folds

Question: What about the “Increase folds of intracellular DHAP” value (U87-MG [7]) of the same molecule?
Answer: 944.4 folds

Question: What about the “Increase folds of intracellular F6P” value (U87-MG [7]) of the same molecule?
Answer: 47.31 folds

Question: And the “Increase folds of intracellular FBP” value (U87-MG [7])?
Answer: 149.69 folds

Question: And the “Increase folds of intracellular GAP” value (U87-MG [7])?
Answer: 1222.86 folds

Question: What about the “Increase folds of intracellular PGA” value (U87-MG [7]) of the same molecule?
Answer: 3.03 folds

Question: What about the “intracellular protein level of Cyto C (Western Blot)” value ([8]; 0.8 mM, 36 h) of the same molecule?
Answer: significantly increased

Question: What about the “intracellular protein levels of PFKFB3 and LDH5 (Western Blot)” value ([8]; 0.8 mM, 36 h) of the same molecule?
Answer: significantly reduced

Question: What about the “ratio of NADPH/NADP+” value ([8]; 1.6 mM, 36 h) of the same molecule?
Answer: significantly increased

Question: What about the “lactic acid level in the culture media” value ([8]; 0.25, 0.5, 1 mM, 12 h and 24 h) of the same molecule?
Answer: decreased significantly

Question: And the “intracellular ATP level” value ([8]; 0.25, 0.5, 1 mM, 24 h)?
Answer: increased significantly

Question: What about the “reduced glutathione GSH level” value ([8]; 0.25-2.5 mM, 36 h) of the same molecule?
Answer: significantly increased

Question: What about the “Increase folds of intracellular DHAP” value (C6) of the same molecule?
Answer: 66.04 folds

Question: What about the “Increase folds of intracellular F6P” value (C6) of the same molecule?
Answer: 19.89 folds

Question: What about the “Increase folds of intracellular FBP” value (C6) of the same molecule?
Answer: 92.22 folds

Question: What about the “Increase folds of intracellular GAP” value (C6) of the same molecule?
Answer: 132.85 folds

Question: What about the “Increase folds of intracellular PGA” value (C6) of the same molecule?
Answer: 2.2 folds
